In US9474759B2 (priority 2011, dated 2016):
Where two headings read alike, the source gives them in different places.

Columns and labels:
[1] = tested on: FIPV-1146; experiment: FIPV-1146 replication in CRFK cells, TCID50 method; format: cell-based, feline coronavirus; conditions: Alphacoronavirus 1, MOI 0.05, mean ± SEM
Procedure: (§1) Crandell Rees feline kidney (CRFK) cells were maintained in minimal essential medium containing 2-5% fetal bovine serum and antibiotics (chlortetracycline [25 μg/ml], penicillin [250 U/ml], and streptomycin [250 μg/ml]). FIPV WSU 79-1146 and FECV WSU 79-1683 strains are the prototypes of serotype II FIPV or FECV, respectively, and were purchased from ATCC (Manassas, Va.).
(§2) The cells were further incubated in the presence of each compound for 1 hr at 37° C. Then […] or FECV-1683 was inoculated to the cells at a multiplicity of infection (MOI) of 0.05 or 5.
(§3) b. TCID50 Method. A standard TCID50 method with the 10-fold dilution of each sample was used for virus titration.

[2] = tested on: FCV; experiment: Cell culture system, FCV replication in CRFK cells (Example 3); format: cell-based, feline calicivirus; conditions: Feline calicivirus; cell-based assay, CRFK cells; read-out: IC50 against FCV replication
[3] = tested on: MHV; experiment: Cell-based screening, MHV in CCL-9.1 cells (Example 2); parameters: species or system mouse hepatitis virus; conditions: Murine coronavirus; CCL-9.1 cells; read-out: Inhibition [ED50 (μM)] against various viruses: Coronavirus, MHV
[4] = target: MNV-1 3CLpro (codon-optimized, full-length, recombinant) (Norovirus, UniProt Q80J95); experiment: biochemical; parameters: species or system murine norovirus-1 (GV)
[5] = target: Norwalk virus 3CL protease (NV3CL protease), recombinant (Norovirus, UniProt Q83883); experiment: Recombinant NV protease FRET inhibition assay (Edans-[…]-Dabcyl substrate), FIG. 4; format: biochemical; conditions: 2.5 μM enzyme, 300 nM Edans-EPDFHLQGPEDLAK-Dabcyl, 30 min incubation, 30° C., pH 8.0
Procedure: (§4) After a 30 minute incubation period, 5 μL of 12 μM Edans-[…]-Dabcyl (SEQ ID NO:1) substrate in DMSO was then added and the increase in fluorescence was monitored for 30 minutes at an excitation and emission wavelength of 360 and 460 nm, respectively. Using a HORIBA FluoroMax 4 spectrofluorometer. Hydrolysis curves were linear. The final enzyme and substrate concentrations were 2.5 μM and 300 nM, respectively. […] Furthermore, the nature of the cap was also important (compare, for example, inhibitors A and D).

[6] = tested on: 3CLpro of NV, MD145, MNV-1; format: biochemical, norovirus; conditions: optimized FRET-based protease assay
[7] = tested on: FECV-1683; experiment: FECV-1683 replication in CRFK cells, TCID50 method; format: cell-based, feline coronavirus; conditions: Alphacoronavirus 1, MOI 0.05, mean ± SEM
Procedure: as §1, §2, §3

[8] = target: SARS-CoV 3CLpro (codon-optimized, N-terminal 6 His, recombinant) (Severe acute respiratory syndrome coronavirus, UniProt P0C6X7); experiment: biochemical
[9] = tested on: FCV; experiment: Cell-based screening, FCV in CRFK cells (Example 2); conditions: Feline calicivirus; CRFK cells; read-out: Inhibition [ED50 (μM)] against various viruses: Calicivirus, FCV
Procedure: (§5) 3. Cell-based screening of inhibitor. The effects of each inhibitor on the viral replication were examined. The list of viruses and corresponding cell lines are listed above in Table 2. Briefly, confluent cells were inoculated with virus at a MOI of 5 or 0.05 for 1 hr, and medium was replaced with medium containing mock-medium or each compound (up to 100 μM). The virus infected cells were further incubated for up to 96 hrs, and the replication of virus was measured by TCID50 assay with the 10-fold dilution of each sample used for virus titration (Reed and Muench, 1938). In some viruses, the virus protein and genome expression levels were detected by Western blot analysis and real-time qRT-PCR, respectively, as described below. The IC50s of the compounds were calculated.

[10] = tested on: Teschovirus; experiment: organism not typed; format: cell-based, porcine teschovirus; conditions: read-out: Inhibition [ED50 (μM)] against various viruses: Picornavirus, Teschovirus
[11] = tested on: 229E; experiment: Cell-based screening, 229E in MRC-5 cells (Example 2); conditions: Human coronavirus 229E, MRC5; MRC-5 cells; read-out: Inhibition [ED50 (μM)] against various viruses: Coronavirus, 229E
Procedure: as §5

[12] = target: PV 3Cpro (codon-optimized, N-terminal 6 His, recombinant) (Poliovirus type 1, UniProt P03300); experiment: biochemical; parameters: species or system poliovirus (poliomyelitis virus)
[13] = target: recombinant 3C or 3CL of MD145 (Norovirus Hu/GII.4/MD145-12/1987/US (Maryland virus), UniProt Q8V0P3); experiment: FRET protease assay, MD145 3CL (Example 2); format: biochemical, norovirus strain MD145
[14] = target: Norwalk virus 3CL protease (Norovirus, UniProt Q83883); experiment: Recombinant NV protease fluorogenic substrate inhibition assay (Example 1); format: biochemical; conditions: 30 min pre-incubation, 30° C., pH 8.0
Procedure: as §4

Sequence of PV 3Cpro (codon-optimized, N-terminal 6 His, recombinant) (P03300 1566-1748 limits assumed): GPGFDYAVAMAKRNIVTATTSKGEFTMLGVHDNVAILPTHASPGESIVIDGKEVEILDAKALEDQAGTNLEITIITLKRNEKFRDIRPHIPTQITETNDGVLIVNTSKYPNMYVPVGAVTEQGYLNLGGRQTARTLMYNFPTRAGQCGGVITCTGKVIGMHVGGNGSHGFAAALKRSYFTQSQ
Sequence of MNV-1 3CLpro (codon-optimized, full-length, recombinant) (Q80J95 995-1177): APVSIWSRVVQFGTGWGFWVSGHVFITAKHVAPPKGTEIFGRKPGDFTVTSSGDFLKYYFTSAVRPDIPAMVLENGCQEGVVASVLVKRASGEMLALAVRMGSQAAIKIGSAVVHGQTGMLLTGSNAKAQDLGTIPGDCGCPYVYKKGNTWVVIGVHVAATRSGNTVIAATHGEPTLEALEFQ
Sequence of Norwalk virus 3CL protease (NV3CL protease), recombinant (Q83883 1101-1281): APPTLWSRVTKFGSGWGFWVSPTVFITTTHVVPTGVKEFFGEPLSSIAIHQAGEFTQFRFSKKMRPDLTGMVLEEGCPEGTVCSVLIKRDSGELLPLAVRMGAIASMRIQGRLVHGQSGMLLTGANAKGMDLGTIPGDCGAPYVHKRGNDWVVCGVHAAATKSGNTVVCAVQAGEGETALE
Sequence of Norwalk virus 3CL protease (Q83883 1101-1281): as above
Sequence of recombinant 3C or 3CL of MD145 (Q8V0P3 entry or part of it): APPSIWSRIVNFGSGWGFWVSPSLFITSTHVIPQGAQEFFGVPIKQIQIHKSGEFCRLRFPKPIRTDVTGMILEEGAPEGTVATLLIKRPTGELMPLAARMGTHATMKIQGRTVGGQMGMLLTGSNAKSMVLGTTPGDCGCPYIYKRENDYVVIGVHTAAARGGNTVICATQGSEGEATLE

## CC(C)C[C@H](NC(=O)OCc1ccccc1)C(=O)N[C@H](C=O)C[C@@H]1CCNC1=O [GC373]
[1]; 24 hr post infection, read-out: Inhibition [ED50 (μM)] against FIPV-1146, 24 hrs
  EC50: 0.07 ± 0.04 µM
[1]; 48 hr post infection, read-out: Inhibition [ED50 (μM)] against FIPV-1146, 48 hrs
  EC50: 0.43 ± 0.35 µM
[2]
  IC50: 65000 nM
[3]
  EC50: 2 µM
[4]
  IC50: 1340 nM
[5]
  IC50: 1820 nM
[6]
  effect on the activity of 3CLpro of NV, MD145, MNV-1 (in words): highly effective
[7]; 24 hr post infection, read-out: Inhibition [ED50 (μM)] against FECV-1683, 24 hrs
  EC50: 0.04 ± 0.01 µM
[7]; 48 hr post infection, read-out: Inhibition [ED50 (μM)] against FECV-1683, 48 hrs
  EC50: 0.09 ± 0.01 µM
[8]
  IC50: 3480 ± 1590 nM
[9]
  EC50: 65 µM
[10]
  EC50: 0.15 µM
[11]
  EC50: 0.2 µM
[12]
  IC50: 2020 ± 1560 nM
[13]
  IC50: 20.3 µM
[14]
  inhibitory activity against Norwalk virus 3CL protease (in words): dose-dependent inhibition
